In the test the target is human APJ receptor (Homo sapiens (Human), UniProt P35414). The test is described as follows: biochemical. Format: biochemical. Here is the method: The human APJ receptor was cloned by polymerase chain reaction and the gene encoding the receptor was subcloned in pFLAG-CMV™-3 expression vector (Sigma, Saint Louis, Mo. USA) in-house at Amgen. A GTPγS binding assay was performed on membranes prepared from CHO cells stably expressing human APJ receptor. The optimum experimental conditions for the concentrations of GDP, MgCl2, and NaCl in the assay buffer were initially determined. The assay was performed in 9 μL assay buffer [20 mM HEPES, pH 7.5, 5 mM MgCl2, 100 mM NaCl and 0.1% (w/v) BSA], 1 μL of diluted test compound (starting with 0.75 mM, 2-fold serial dilution with DMSO, total 22 points), 10 μL of 18 µM GDP (final concentration of 3 μM GDP), 20 μL of […] membrane protein expressing human APJ receptor captured with WGA PS beads (final concentration of 5 μg per well), and 20 μL of 0.3 nM [^35S]GTPγS (final concentration is 0.1 nM [^35S]GTPγS)(Perkin Elmer Life and Analytical Sciences, Waltham USA).

Where [1] appears, read: [35S]GTPγS binding, membranes from CHO cells stably expressing human APJ receptor, read-out: Activity hAPJ SPA EC50 IP.

Read-outs that look alike come from different tables or passages of the source. Where only a bound is given, the exact number is not on record here.

human APJ receptor, sequence (P35414 whole entry): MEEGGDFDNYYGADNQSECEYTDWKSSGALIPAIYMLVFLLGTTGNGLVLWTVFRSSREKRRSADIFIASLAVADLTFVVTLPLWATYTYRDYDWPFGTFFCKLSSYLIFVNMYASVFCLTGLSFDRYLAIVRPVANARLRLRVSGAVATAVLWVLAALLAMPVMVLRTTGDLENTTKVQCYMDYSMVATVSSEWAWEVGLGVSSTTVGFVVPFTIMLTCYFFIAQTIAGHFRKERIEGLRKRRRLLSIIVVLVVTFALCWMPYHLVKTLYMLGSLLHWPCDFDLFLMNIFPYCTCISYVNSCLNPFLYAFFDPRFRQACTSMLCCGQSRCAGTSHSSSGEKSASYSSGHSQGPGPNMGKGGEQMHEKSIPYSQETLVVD

`COc1ncnc(OC)c1-n1c(COC(C)C)nnc1NS(=O)(=O)[C@@H](C)[C@H](OC)c1ncc(Cl)cn1` [Example 79.0, (1R,2S)-1-(5-chloropyrimidin-2-yl)-N-(4-(4.6-dimethoxypyrimidin-5-yl)-5-(isopropoxymethyl)-4H-1,2,4-triazol-3-yl)-1-methoxypropane-2-sulfonamide]: under setting [1], the EC50 was found to be 0.0029 µM. On the same count and under the same terms, the value for `COCc1nnc(NS(=O)(=O)[C@@H](C)[C@H](OC)c2ncc(Cl)cn2)n1C1CCOCC1` [Example 63.0, (1R, 2S)-1-(5-chloropyrimidin-2-yl)-1-methoxy-N-(5-(methoxymethyl)-4-(tetrahydro-2H-pyran-4-yl)-4H-1,2,4-triazol-3-yl)propane-2-sulfonamide] was 0.01 µM; that for `COCc1nnc(NS(=O)(=O)[C@@H](C)[C@H](OC)c2ncc(Cl)cn2)n1C1(C)CC1` [Example 59.0, (1R,2S)-1-(5-chloropyrimidin-2-yl)-1-methoxy-N-(5-(methoxymethyl)-4-(1-methylcyclopropyl)-4H-1,2,4-triazol-3-yl)propane-2-sulfonamide] was 0.033 µM; that for `COCc1nnc(NS(=O)(=O)[C@@H](C)[C@H](C)c2cnc(OC)cn2)n1-c1c(OC)cccc1OC` [Example 74.0, (2S,3R)-N-(4-(2,6-dimethoxyphenyl)-5-(methoxymethyl)-4H-l,2,4-triazol-3-yl)-3-(5-methoxypyrazin-2-yl)butane-2-sulfonamide] was 0.016 µM. For `COc1ncnc(OC)c1-n1c(CC2CCCCC2)nnc1NS(=O)(=O)[C@@H](C)[C@H](OC)c1ncc(Cl)cn1` [Example 29.0, (1R,2S)-1-(5-chloro-2-pyrimidinyl)-N-(5-(cyclohexylmethyl)-4-(4,6-dimethoxy-5-pyrimidinyl)-4H-1,2,4-triazol-3-yl)-1-methoxy-2-propanesulfonamide], the EC50 under setting [1] worked out at 0.021 µM. `COc1cccc(OC)c1-n1c(Cn2ccccc2=O)nnc1NS(=O)(=O)[C@@H](C)[C@H](C)c1ncc(Cl)cn1` [Example 42.0, (2S,3R)-3-(5-chloro-2-pyrimidinyl)-N-(4-(2,6-dimethoxyphenyl)-5-((2-oxo-1(2H)-pyridinyl)methyl)-4H-1,2,4-triazol-3-yl)-2-butanesulfonamide]: the EC50 under setting [1] was 0.33 µM. For the compound `COCCc1nnc(NS(=O)(=O)[C@@H](C)[C@H](C)c2ncc(Cl)cn2)n1-c1c(OC)cccc1OC` [Example 32.0, (2S,3R)-3-(5-chloro-2-pyrimidinyl)-N-(4-(2,6-dimethoxyphenyl)-5-(2-methoxyethyl)-4H-1,2,4-triazol-3-yl)-2-butanesulfonamide], the half-maximal effective concentration (EC50) under setting [1] was determined as 0.01 µM. The same measure, in the same setting: for `COc1cccc(OC)c1-n1c(CN2CCCCCC2=O)nnc1NS(=O)(=O)[C@@H](C)[C@H](OC)c1ncc(C)cn1` [Example 52.0] the value was 0.65 µM; for `COc1cccc(OC)c1-n1c(Cc2ccccc2)nnc1NS(=O)(=O)[C@@H](C)[C@H](OC)c1ncc(C)cn1` [Example 54.0], 0.3 µM; for `COc1ncnc(OC)c1-n1c(Cc2ccccc2)nnc1NS(=O)(=O)[C@@H](C)[C@H](C)c1ncc(C)cn1` [Example 23.0, (2S,3R)-N-(5-benzyl-4-(4,6-dimethoxy-5-pyrimidinyl)-4H-1,2,4-triazol-3-yl)-3-(5-methyl-2-pyrimidinyl)-2-butanesulfonamide], 0.4 µM. Turning to `COc1cccc(OC)c1-n1c(NS(=O)(=O)[C@@H](C)[C@H](C)c2ncc(C)cn2)nnc1-c1cccc2c1CC(=O)N2` [Example 17.0, (2S,3R)-N-(4-(2,6-dimethoxyphenyl)-5-(2-oxoindolin-4-yl)-4H-1,2,4-triazol-3-yl)-3-(5-methylpyrimidin-2-yl)butane-2-sulfonamide], the concentration for a half-maximal effect (EC50) under setting [1] was found to be 0.35 µM.

In the case of `COCc1nnc(NS(=O)(=O)[C@@H](C)[C@@H](OC(C)C)c2ncc(C)cn2)n1-c1cc(OC)ccc1Cl` [Example 163.0], the EC50 under setting [1] was determined as 0.04 µM. Same read-out and setting: the value for `COc1cccc(OC)c1-n1c(Cc2cc[nH]n2)nnc1NS(=O)(=O)[C@@H](C)[C@H](C)c1ncc(Cl)cn1` [Example 39.0, (2S,3R)-3-(5-chloro-2-pyrimidinyl)-N-(4-(2,6-dimethoxyphenyl)-5-(1H-pyrazol-3-ylmethyl)-4H-1,2,4-triazol-3-yl)-2-butanesulfonamide] was 0.0058 µM. On to `COc1cccc(OC)c1-n1c(Cc2ccncc2)nnc1NS(=O)(=O)[C@@H](C)[C@H](C)c1ncc(Cl)cn1` [Example 141.0, (2S,3R)-3-(5-Chloro-2-pyrimidinyl)-N-(4-(2,6-dimethoxyphenyl)-5-(4-pyridinylmethyl)-4H-1,2,4-triazol-3-yl)-2-butanesulfonamide], for which the EC50 under setting [1] was found to be 0.1 µM. With `COc1ncnc(OC)c1-n1c(COCC(F)(F)F)nnc1NS(=O)(=O)[C@@H](C)[C@H](OC)c1ncc(Cl)cn1` [Example 135.0, (1R,2S)-1-(5-chloro-2-pyrimidinyl)-N-(4-(4,6-dimethoxy-5-pyrimidinyl)-5-((2,2,2-trifluoroethoxy)methyl)-4H-1,2,4-triazol-3-yl)-1-methoxy-2-propanesulfonamide], the EC50 under setting [1] was 0.04 µM. The same measure, in the same setting: the value for `COc1ncnc(OC)c1-n1c(NS(=O)(=O)[C@@H](C)[C@H](C)c2ncc(Cl)cn2)nnc1[C@@H](C)OC(C)C` (single isomer, unassigned) [Example 2.0, (2S,3R)-3-(5-chloro-2-pyrimidinyl)-N-(4-(4,6-dimethoxy-5-pyrimidinyl)-5-((1R)-1-(1-methylethoxy)ethyl)-4H-1,2,4-triazol-3-yl)-2-butanesulfonamide or (2S,3R)-3-(5-chloro-2-pyrimidinyl)-N-(4-(4,6-dimethoxy-5-pyrimidinyl)-5-((1S)-1-(1-methylethoxy)ethyl)-4H-1,2,4-triazol-3-yl)-2-butanesulfonamide] was 0.17 µM; that for “(1R,2S)-1-(5-chloropyrimidin-2-yl)-1-methoxy-N-(4-(1-methylaclopropyl)-5-(((R)-tetrahydrofurcan-2-yl)methyl)-4H-l,2,4-triazol-3-yl)propane-2-sulfonainide or (1R,2S)-1-(5-chloroprimidin-2-yl)-1-methoxy-N-(4-(1-methylcyclopropyl)-5-(((S)-tetrahydrofuran-2-yl)methyl)-4H-l,2.4-triazol-3-yl)propane-2-sulfonamide [Example 56.0]” was 0.42 µM; that for `COCc1nnc(NS(=O)(=O)[C@@H](C)[C@@H](OC(C)C)c2ccc(C)cn2)n1-c1c(OC)cccc1OC` [Example 155.0] was 0.012 µM. `COCc1nnc(NS(=O)(=O)[C@@H](C)[C@H](C)c2ncc(OC)cn2)n1-c1c(OC)cccc1OC` [Example 130.0]: under setting [1], the EC50 is 0.012 µM. `COc1cccc(OC)c1-n1c(COc2ccccc2)nnc1NS(=O)(=O)[C@@H](C)[C@H](OC)c1ncc(C)cn1` [Example 48.0, (1R,2S)—N-(4-(2,6-Dimethoxyphenyl)-5-(phenoxymethyl)-4H-1,2,4-triazol-3-yl)-1-methoxy-1-(5-methyl-2-pyrimidinyl)-2-propanesulfonamide]: the EC50 under setting [1] was found to be 0.44 µM. As for `COc1ncnc(OC)c1-n1c(NS(=O)(=O)[C@@H](C)[C@H](OC)c2ncc(Cl)cn2)nnc1C(C)C` [Example 133.0, (1R,2S)-1-(5-chloro-2-pyrimidinyl)-N-(4-(4,6-dimethoxy-5-pyrimidinyl)-5-(2-propanyl)-4H-1,2,4-triazol-3-yl)-1-methoxy-2-propanesulfonamide], the EC50 under setting [1] worked out at 0.022 µM. Still for that read-out and setting: the value for `COc1ncnc(OC)c1-n1c(NS(=O)(=O)[C@@H](C)[C@H](C)c2ncc(Cl)cn2)nnc1[C@@H](C)OC` (single isomer, unassigned) [Example 5.0, (2S,3R)-3-(5-chloro-2-pyrimidinyl)-N-(4-(4,6-dimethoxy-5-pyrimidinyl)-5-((1R)-1-methoxyethyl)-4H-1,2,4-triazol-3-yl)-2-butanesulfonamide or (2S,3R)-3-(5-chloro-2-pyrimidinyl)-N-(4-(4,6-dimethoxy-5-pyrimidinyl)-5-((1S)-1-methoxyethyl)-4H-1,2,4-triazol-3-yl)-2-butanesulfonamide] was 0.31 µM; that for `COCc1nnc(NS(=O)(=O)[C@@H](C)[C@H](OC)c2ncc(Cl)cn2)n1-c1ccccc1OC` [Example 132.0] was 0.011 µM; that for `CO[C@H](c1ncc(Cl)cn1)[C@H](C)S(=O)(=O)Nc1nnc(CC(F)(F)F)n1C1CCOCC1` [Example 139.0] was over 4.2 µM. Still for that read-out and setting: the value for `COc1ncnc(OC)c1-n1c(CC(F)(F)F)nnc1NS(=O)(=O)[C@@H](C)[C@H](OC)c1ncc(Cl)cn1` [Example 67.0, (1R,2S)-1-(5-chloropyrimidin-2-yl)-N-(4-(4,6-dimethoxypyrimidine-5-yl)-5-(2.2.2-trifluoroethyl)-4H-1.2.4-triazol-3-yl)-1-methoxypropane-2-sulfonamide] was 0.23 µM. Compound `[2H]C([2H])([2H])OCc1nnc(NS(=O)(=O)[C@@H](C)[C@@H](OC(C)C)c2ncc(C)cn2)n1-c1c(OC)cccc1OC` [Example 152.0] had an EC50 of 0.0061 µM. With `COCc1nnc(NS(=O)(=O)[C@@H](C)[C@H](C)c2ncc(C)cn2)n1-c1c(OC)cccc1OC` [Example 61.0, (2S,3R)-N-(4-(2,6-dimethoxyphenyl)-5-(methoxymethyl)-4H-1.2.4-triazol-3-yl)-3-(5-methylpyrimidin-2-yl)butane-2-sulfonamide], where the note is “read-out: Activity hAPJ SPA EC50 IP”, the EC50 came out at 0.0067 µM.

As usually defined, the EC50 is the concentration at which the effect is half-maximal.

For the origin of these results see patent publication US11191762B2, “Alkyl substituted triazole compounds as agonists of the APJ Receptor” (priority 2016, dated 2021).
